Data: US20090011103A1, “Composition comprising polyphenol” (Conopco, Inc. d/b/a Unilever, priority 2007, published 2009)

Legend:
[1] = meeting abstract of Experimental biology 2007; read-out: vasorelaxing properties, 50% dose; cited from earlier work
[2] = tested on: mesenteric resistance arteries of SHR; test: Reactivity of isolated arteries: dilator effect during contraction induced by 40 mmol/L K+; design: species or system Spontaneously Hypertensive Rats (SHR)
Experimental: Segments of 2nd order mesenteric artery side branches were isolated from 14 weeks old male Spontaneously Hypertensive Rats (SHR). Two stainless-steel wires (diameter 40 μm) were inserted in the lumen of the arterial segments, which were then mounted in organ chambers between an isometric force transducer and a displacement device (Danish Myotechnology by J. P. Trading, Denmark). The organ chambers were filled with Krebs-Ringer bicarbonate solution which was maintained at 37° C. and continuously aerated with 95% O2 and 5% CO2. Before the actual experiments started, arterial segments were stretched to their individual optimal lumen diameter for mechanical performance, i.e. the diameter at which maximal contractile responses to noradrenaline (10 μmol/L) were obtained. In each experiment four second order mesenteric resistance arterial segments from one animal were mounted in individual organ chambers and studied in parallel. […]
For the analysis of the acute effects of the mixtures on K+-induced contraction, increasing concentrations of the mixtures (0.1-100 umol/L) were administered on top of the stable contractions and were left in contact with the arterial segments for 5-7 min to make sure that either no effect or a stable effect was reached. […] In this way, the effects of different exposure times to the mixtures (7, 30 and 90 min) on K+-induced contraction, could be evaluated. […]
Active wall tension (AWT) was calculated by subtracting the resting wall tension.
All contractile responses (AWT in the presence of stimuli, solvent and mixes of ingredients) were next expressed as a percentage of the contractile response (AWT) to 10 uM noradrenaline at the end of the normalisation period, i.e. before exposure of the arterial segments to solvent or mixes of ingredients.
Effects of increasing concentrations of the solvent and of the mixes (0.1 to 100 umol/L) during contractile responses to 40 mmol/L K+, were calculated as % change of the level of pre-contraction. […]

O=C(O)C=Cc1ccc(O)cc1 [p-coumaric acid, 3-(4-hydroxyphenyl)-2-prepenoic acid]
EC50 [1]: 0.03 µM | influence on the dilation of the arteries ([2]; at a low concentration, by comparing the effect of different mixtures): significant influence on the dilation of the arteries | EC50 ([2]; isolated SHR mesenteric arteries, K+ (40 mmol/L) pre-contraction, deduced by comparing different mixtures (Plackett-Burman design), corrected for solvent, read-out: EC50 of dilation of the arteries): 7.5 µM | concentration at which maximum dilatation was obtained ([2]; isolated SHR mesenteric arteries, K+ (40 mmol/L) pre-contraction, mixtures 0.1-100 umol/L): 100 µM
